Measured values as given in patent US5962640A, “Methods for preparing novel dipeptide compounds or pharmacuetically acceptable salts thereof” (Japan Energy Corporation, priority 1995, dated 1999).
In brackets after ≈: the same amount, converted by molar mass.

What was measured:
Recombinant HIV protease = biological target: T1, Recombinant HIV protease (Human immunodeficiency virus type 1 group M subtype B, UniProt P04585); assay: HIV protease inhibitory activity (cleavage of synthetic hepta-peptide, HPLC); format: biochemical; conditions: for inhibition at 5 µM: read-out: HIV protease inhibitory activity (%); for HIV protease inhibitory activity (%) / inhibition at 0.05 µM: 37° C., 60 min
T1 construct: Recombinant HIV protease
Description: Recombinant HIV protease (Biochemistry, 250 (9), 264 (1990)) and synthetic hepta-peptide (H-Ser-Gln-Asn-Tyr-Pro-Ile-Val-OH/trifluoroacetic acid salt) were used for assay of protease activity. Peptide fragment H-Pro-Ile-Val-OH formed by cleavage between -Tyr . . . Pro of said substrate after a reaction in the presence of various concentration of tested compound at 37° C. for 60 min. was determined by reversed phase HPLC and the inhibitory rate was calculated (referred to Japanese laid-open unexamined patent, No. 170722/1993).
The concentration of tested compound represents the final concentration thereof of the reaction mixture.

HTLV-IIIB virus = assay: Anti-HIV activity: protection of HTLV-IIIB infected MT-4 cells, MTT method; format: cell-based; conditions: MT-4 cells infected with HTLV-IIIB, 5 day culture
Description: The anti-HIV activity of the dipeptide compound of the present invention was evaluated as described below. That is, the inhibitory action of the compound on formation of HIV virus particles which infects T lymphocyte was evaluated by potency to prevent death of T lymphocyte accompanied by said virus infection.
(§1) According to a test method which was already reported in publications (H.Nakashima et al., Antimicrob. Agents Chemother.36, 1249-1255 (1992), etc.,), anti-HIV activity was evaluated, by using MT-4 cell line and HTLV-IIIB virus, MT-4 cells (2.5×10^4 well, MOI:001) infected with said HTLV-IIIB virus just before the addition were into 96-well microtiter plate wherein each well contained various concentration of tested compound. At the same time, in order to investigate cytotoxicity of tested compounds to MT-4 cell line, non-infected MT-4 cell line was cultured in the presence of various kinds of tested compound. After 5 day culture at 37° C. in a CO2 incubator, the number of vial cells was counted by MTT method.
Virus whose infectious value was 3.8×10^4 TCID 50/ml was used.

MT-4 cell line = assay: Cytotoxicity to non-infected MT-4 cell line, MTT method; format: cell-based; conditions: non-infected MT-4 cells, 5 day culture
Description: as §1, with “method. […]” for “method.”

[1] = Pharmacokinetics in rats, intravenous or intraduodenal administration, plasma concentration; format: in vivo; conditions: 10.0 mg/kg
Description: Metabolic characteristics of the dipeptide compounds of the present invention was evaluated using rats. Tested compounds dissolved in vehicle was administered intraduodenally or intravenously. After administration, blood was taken and the concentration of residual tested compound in plasma was analyzed. The dosage of the tested compound was described in table 3.

Compound | inhibition at 5 µM (Recombinant HIV protease) [%] | inhibition at 0.05 µM (Recombinant HIV protease; concentration 50 nM (final)) [%] | also measured
CC(C)(C)NC(=O)[C@@H]1CSCN1C(=O)[C@@H](O)[C@H](Cc1ccccc1)NC(=O)c1ccccc1 [Compound of example 1, (R)-N-tert-butyl-3-[(2S,3S)-2-hydroxy-3-[benzoyl]amino-4-phenylbutanoyl]-1,3-thiazolidine-4-carboxamide] | 52 |  | 
Cc1ccccc1C(=O)N[C@@H](Cc1ccccc1)[C@H](O)C(=O)N1CSC[C@H]1C(=O)NC(C)(C)C [Compound of example 2, (R)-N-tert-butyl-3-[(2S,3S)-2-hydroxy-3-[2-methylbenzoyl]amino-4-phenylbutanoyl]-1,3-thiazolidine-4-carboxamide] | 74.9 |  | 
CC(C)(C)NC(=O)[C@@H]1CSCN1C(=O)[C@@H](O)[C@H](Cc1ccccc1)NC(=O)c1cccc(O)c1 [Compound of example 6, (R)-N-tert-butyl-3-[(2S,3S)-2-hydroxy-3-[3-hydroxybenzoyl]amino-4-phenylbutanoyl]-1,3-thiazolidine-4-carboxamide] | 76 |  | 
CC(C)(C)NC(=O)[C@@H]1CSCN1C(=O)[C@@H](O)[C@H](Cc1ccccc1)NC(=O)c1ccc(O)cc1 [Compound of example 7, (R)-N-tert-butyl-3-[(2S,3S)-2-hydroxy-3-[4-hydroxybenzoyl]amino-4-phenylbutanoyl]-1,3-thiazolidine-4-carboxamide] | 62.2 |  | 
CC(C)(C)NC(=O)[C@@H]1CSCN1C(=O)[C@@H](O)[C@H](Cc1ccccc1)NC(=O)c1ccc(C(=O)O)cc1 [Compound of example 13, (R)-N-tert-butyl-3-[(2S,3S)-2-hydroxy-3-[4-carboxybenzoyl]amino-4-phenylbutanoyl]-1,3-thiazolidine-4-carboxamide] | 70.4 |  | 
Cc1c(O)cccc1C(=O)N[C@@H](Cc1ccccc1)[C@H](O)C(=O)N1CCC[C@H]1C(=O)NC(C)(C)C [Compound of example 24, N-tert-butyl-1-[(2S,3S)-2-hydroxy-3-N-[3-hydroxy-2-methylbenzoyl]amino-4-phenylbutanoyl]-L-prolinamide] |  |  | HIV protease inhibitory activity (%) (Recombinant HIV protease; concentration 50 nM (final)): 17.6%; HIV protease inhibitory activity (%) (Recombinant HIV protease; concentration 5 μM (final)): 94.2%; Anti-HIV activity EC50 (HTLV-IIIB virus): 1.97 µg/mL; Cytotoxicity CC50 (MT-4 cell line): 231 µg/mL
Cc1c(N)cccc1C(=O)N[C@@H](Cc1ccccc1)[C@H](O)C(=O)N1CSC[C@H]1C(=O)NC(C)(C)C [Compound of example 25, (R)-N-tert-butyl-3-[(2S,3S)-2-hydroxy-3-[3-amino-2-methylbenzoyl]amino-4-phenylbutanoyl]-1,3-thiazolidine-4-carboxamide] | 81.3 |  | 
Cc1cccc(C(=O)N[C@@H](Cc2ccccc2)[C@H](O)C(=O)N2CSC[C@H]2C(=O)NC(C)(C)C)c1C [Compound of example 26, (R)-N-tert-butyl-3-[(2S,3S)-2-hydroxy-3-(2,3-dimethylbenzoyl]amino-4-phenylbutanoyl]-1,3-thiazolidine-4-carboxamide] | 77.9 |  | 
Cc1c(O)cccc1C(=O)N[C@@H](Cc1ccccc1)[C@H](O)C(=O)N1CS(=O)(=O)C[C@H]1C(=O)NC(C)(C)C [Compound of example 28, (R)-N-tert-butyl-3-[(2S,3S)-2-hydroxy-3-(2-methyl-3-hydroxybenzoyl)amino-4-phenylbutanoyl]-1,3-thiazolidine-1,1-dioxide-4-carboxamide] |  |  | HIV protease inhibitory activity (%) (Recombinant HIV protease; concentration 50 nM (final)): 23.8%; HIV protease inhibitory activity (%) (Recombinant HIV protease; concentration 5 μM (final)): 96.1%; Anti-HIV activity EC50 (HTLV-IIIB virus): 1.80 µg/mL; Cytotoxicity CC50 (MT-4 cell line): 146 µg/mL
CC(C)(C)NC(=O)[C@@H]1CSCN1C(=O)[C@@H](O)[C@H](Cc1ccccc1)NC(=O)c1cc(O)cc(O)c1 [Compound of example 29, (R)-N-tert-butyl-3-[(2S,3S)-2-hydroxy-3-(3,5-dihydroxybenzoyl)amino-4-phenylbutanoyl]-1,3-thiazolidine-4-carboxamide] | 75.6 |  | 
Cc1c(O)cccc1C(=O)N[C@@H](Cc1ccccc1)[C@H](O)C(=O)N1CO[C@H](C)[C@H]1C(=O)NC(C)(C)C [Compound of example 30, (4S,5R)-N-tert-butyl-3-[(2S,3S)-2-hydroxy-3-(2-methyl-3-hydroxybenzoyl)amino-4-phenylbutanoyl]-5-methyl-1,3-oxazolidine-4-carboxamide] | 96.9 | 21.5 | EC50 (HTLV-IIIB virus; Human immunodeficiency virus 1, MT4, 120 h): 1.4 µg/mL (≈ 2.81 µM); Cytotoxicity CC50 (MT-4 cell line): 191 µg/mL
CCCc1c(O)cccc1C(=O)N[C@@H](Cc1ccccc1)[C@H](O)C(=O)N1CSC[C@H]1C(=O)NC(C)(C)C [Compound of example 32, (R)-N-tert-butyl-3-[(2S,3S)-2-hydroxy-3-(3-hydroxy-2-propylbenzoyl)amino-4-phenylbutanoyl]-1,3-thiazolidine-4-carboxamide] | 92 | 17.2 | 
Cc1c(N)cc(N)cc1C(=O)N[C@@H](Cc1ccccc1)[C@H](O)C(=O)N1CSC[C@H]1C(=O)NC(C)(C)C [Compound of example 33, (R)-N-tert-butyl-3-[(2S,3S)-2-hydroxy-3-(3,5-diamino-2-methylbenzoyl)amino-4-phenylbutanoyl]-1,3-thiazolidine-4-carboxamide] | 85.2 |  | 
Cc1ccccc1CNC(=O)[C@H]1N(C(=O)[C@@H](O)[C@H](Cc2ccccc2)NC(=O)c2cccc(O)c2C)CSC1(C)C [Compound of example 37, (R)-N-(2-methylbenzyl)-3-[(2S,3S)-3-(3-hydroxy-2-methylbenzoyl)amino-2-hydroxy-4-phenylbutanoyl]-5,5-dimethyl-1,3-thiazolidine-4-carboxamide] | > 99 | 95.8 | AUC ([1]; i.d.): 55 µg/mL/min; AUC ([1]; i.v.): 131 µg/mL/min
CCCCNC(=O)[C@@H]1CSCN1C(=O)[C@@H](O)[C@H](Cc1ccccc1)NC(=O)c1cccc(O)c1C [Compound of example 39, (R)-N-n-butyl-3-[(2S,3S)-3-(3-hydroxy-2-methylbenzoyl)amino-2-hydroxy-4-phenylbutanoyl]-1,3-thiazolidine-4-carboxamide] | 92 | 13.4 | 
Cc1ccccc1CNC(=O)[C@H]1NC[C@@H](Cl)C1C(=O)[C@@H](O)[C@H](Cc1ccccc1)NC(=O)c1cccc(O)c1C (stereo partly drawn) [Compound of example 41, (2S,4S)-N-(2-methylbenzyl)-3-[(2S,3S)-3-(3-hydroxy-2-methylbenzoyl)amino-2-hydroxy-4-phenylbutanoyl]-4-chloropyrrolidine-2-carboxamide] | 97.7 | 76.8 | 
Cc1c(O)cccc1C(=O)N[C@@H](Cc1ccccc1)[C@H](O)C(=O)N1CSC[C@H]1C(=O)NCc1ccccc1Cl [Compound of example 42, (R)-N-(2-chlorobenzyl)-3-[(2S,3S)-3-(3-hydroxy-2-methylbenzoyl)amino-2-hydroxy-4-phenylbutanoyl]-1,3-thiazolidine-4-carboxamide] | 97.4 | 51.2 | 
Cc1cccc(C)c1CNC(=O)[C@@H]1CSCN1C(=O)[C@@H](O)[C@H](Cc1ccccc1)NC(=O)c1cccc(O)c1C [Compound of example 44, (R)-N-(2,6-dimethylbenzyl)-3-[(2S,3S)-3-(3-hydroxy-2-methylbenzoyl)amino-2-hydroxy-4-phenylbutanoyl]-1,3-thiazolidine-4-carboxamide] | 97.9 | 75.2 | 
Cc1c(O)cccc1C(=O)N[C@@H](Cc1ccccc1)[C@H](O)C(=O)N1CSC(C)(C)[C@H]1C(=O)NCc1ccccc1Cl [Compound of example 45, (R)-N-(2-chlorobenzyl)-3-[(2S,3S)-3-(3-hydroxy-2-methylbenzoyl)amino-2-hydroxy-4-phenylbutanoyl]-5,5-dimethylthiazolidine-4-carboxamide] | > 99 | 94.5 | 
